In data set [1] the test system is cholesterol biosynthesis in HepG2 cells. As to the kind of experiment: Metabolic labeling of HepG2 cells with [3H]acetate; radio-HPLC sterol profile (inhibition of cholesterol biosynthesis). It is filed as cell-based, human. The note with it: for activity at 10 µM: Homo sapiens, 24 h, Table I, sterol level normalized to normal medium (1.00), mean of 4 experiments; for activity at 10 µM / FF-MAS / cholesterol / desmosterol / lanosterol / lathosterol / zymosterol+7-dehydrocholesterol: 10 μM compound; for FF-MAS / cholesterol / desmosterol / lanosterol / lathosterol / zymosterol+7-dehydrocholesterol: Table II (arranged by sterol profile), normalized to normal medium (1.00). The protocol:
In accordance with the aims of the invention, the effect of the novel compounds on inhibition of cholesterol biosynthesis is assessed. An ex vivo method of metabolic labeling of immortal human hepatocytes is employed. The radioactively labeled early precursor of cholesterol [3H]acetate is added to cells with or without addition of an active new compound.
An ex vivo method of metabolic labeling of immortal human hepatocytes is employed. The radioactively labeled early precursor of cholesterol [3H]acetate is added to cells with or without addition of an active compound.
Cell culture incubation with potential inhibitors of cholesterol biosynthesis and statins Human hepatoma cell line (HepG2-ATCC No. HB-8065) is split in the recommended ratio (1:2-3) into 75 cm^2 cell flasks using two flasks per experimental condition. Cells are incubated at 37° C. with 5% CO2 in Dulbeco's modified Eagle medium (DMEM high (Sigma)) containing 5% calf serum (Sigma) and 1% L-glutamine (Sigma). After 24-hours-culturing in the growth medium, the medium is replaced with the one supplemented with 10 μM concentration of a LK compound, potential inhibitor of cholesterol biosynthesis. 10 μM solution of atorvastatin, inhibitor of HMG-CoA reductase, serves as a positive control.
After 24 hours the growth medium is changed and [^3H]acetate (NEN™ Life Science Products) added in a concentration of 40 μCi per ml of the medium (400 μCi per flask). After 4 hours cells are harvested using 2 ml of trypsin (Sigma) and the cell pellet is resuspended in 1 ml of distilled water. Cells are homogenized using the freeze and thaw method. From cell homogenate sterols are extracted and protein concentration determined using the Bio-Rad reagent.
Homogenates are transferred into 4 ml glass vial and sterols are extracted in 3 ml of extraction solution (75% n-heptane: 25% isopropanol (vol./vol.)) with ergosterol as an internal standard. For better extraction 100 μl of 0.3M NaH2PO4 (pH=1.0) is added. Closed vials are vigorously shaken (1800 rpm) for 2 hours. After extraction procedure vials are centrifuged (2000 g, 10 min) and the organic phase is transferred to fresh conical glass tubes. Extraction procedure is repeated using 1 ml of extraction solution for 15 min. Organic phases are pooled. Primary extracts are dried in vacuum centrifuge, redissolved in 3 ml of n-heptane, and incubated for 10 min at room temperature with mild shaking. After centrifugation (10 min, 2000 g) extracts are transferred into fresh glass tubes and stored in dark and cold.
The organic phase is dried, reconstituted in mobile phase for reversed phase HPLC separation and loaded onto a-HPLC column, Prism-RPN, 5 μm, 250×4,6 mm running in 100% acetonitrile at 1.00 ml/min at 40° C. temperature. Scintillation liquid is added after UV detection at 30 ml/h, at room temperature, to evaluate tritium labeled sterols on a radio detector.
Sterols are determined by comparing the eluted peaks with runs of commercial standards of lanosterol, ergosterol, desmosterol, zymosterol, 7-dehydrocholesterol, lathosterol and cholesterol or laboratory standards (FF-MAS-4,4-Dimethylcholesta-8(9),14,24-triene-3β-ol- and T-MAS-4,4-Dimethylcholesta8(9),24,diene-3,6-ol, Laboratory of Reproductive Biology, The Juliane Marie Center for Children, Women and Reproduction, University Hospital of Copenhagen, DK-2100 Copenhagen, Denmark). Results were normalized on ergosterol quantity and protein concentration. Results are presented as a mean from 4 separated experiments.
The influence of a 10 μM solution of novel LK-substances on cholesterol biosynthesis in the assay on HepG2 cells is presented in Table I. Compounds are arranged according to the building blocks, three of them are 2-pyridineethanols, 2-pyridineethylpiperazines and pyridinemethylpiperazines.
Normal medium pertains to cell cultures without a compound of the invention. Its sterol levels were used for normalization. 10 μM solution of atorvastatin serves as a positive control.

[2] abbreviates: HepG2, read-out: zymosterol+7-dehydrocholesterol.

Molecules are shown by their SMILES. Counter-ions that a name gives are not always drawn. Like-named read-outs stand apart in the source and are kept apart here.

As usually defined, the melting point is the temperature, or range, at which the solid turns liquid. In turn, `OC(CN1CCN(CCc2ccccc2)CC1)c1cccnc1` (stereo not shown) (as salt: hydrobromid) [LK-980, 2-(4-Phenethylpiperazine-1-yl)-1-(pyridine3-yl)-1-ethanol trihydrobromide] returned a melting point of 178 to 181 °C.
In the case of `c1ccc(CCN2CCN(CCc3cccnc3)CC2)cc1` (as salt: hydrobromid) [LK-9100, 1-Phenethyl-4-(2-(pyridine-3-yl)ethyl)piperazine trihydrobromide], the melting point fell in the range of 219 to 222 °C.
In turn, `COc1ccc(CN2CCN(CCc3ccccc3)CC2)cn1` (as salt: hydrobromid) [LK-9106, 1-((6-Methoxypyridin-3-yl)methyl)-4-phenethylpiperazine trihydrobromide] displayed a melting point of 215 to 217 °C.
Regarding `FC(F)(F)c1ccc(CN2CCN(CCc3ccccc3)CC2)cn1` (as salt: hydrobromid) [LK-9107, 1-Phenethyl-4-((6(trifluoromethyl)pyridine-3-yl)methyl)piperazine trihydrobromide], the melting point lay within 225 to 228 °C.
For `FC(F)(F)c1cnc(N2CCCN(CCc3ccccc3)CC2)c(Cl)c1` (as salt: hydrobromid) [LK-9115, 1-(3-Chloro-5-(trifluoromethyl)pyridine-2-yl)-4-phenethyl-1,4-diazepane trihydrobromide], the melting point fell in the range of 175 to 177 °C.
As to `Fc1ccc(CCN2CCN(CCc3ccncc3)CC2)cc1F` (as salt: hydrobromid) [LK-9131, 1-(3,4-di-Fluorophenethyl)-4-(2-(pyridin-4-yl)ethyl)piperazine trihydrobromide], the melting point lay within 256 to 259 °C.
`Clc1ccc(CCN2CCN(CCc3ccncc3)CC2)cc1Cl` (as salt: hydrobromid) [LK-9135, 1-(3,4-Dichlorophenethyl)-4-(2-(pyridin-4-yl)ethyl)piperazine trihydrobromide] had a melting point of 253 to 255 °C.
In turn, `Clc1ccc(CCN2CCN(CCc3ccccn3)CC2)cc1Cl` (as salt: hydrobromid) [LK-9137, 1-(3,4-Dichlorophenethyl)-4-(2-(pyridin-2-yl)ethyl)piperazine trihydrobromide] had a melting point of 207 to 209 °C.
Still for that read-out and setting: the same measure for `Fc1ccc(CCN2CCN(CCc3ccccn3)CC2)cc1F` (as salt: hydrobromid) [LK-9138, 1-(3,4-Difluorophenethyl)-4-(2-(pyridin-2-yl)ethyl)piperazine trihydrobromide]: 212 to 213 °C.
For the molecule `c1ccc(CCN2CCN(CCCc3cccnc3)CC2)cc1` (as salt: hydrobromid) [LK-9140, 1-Phenethyl-4-(3-(pyridine-3-yl)propyl)piperazine trihydrobromide], the melting point fell in the range of 262 to 264 °C.
In turn, `OC(CN1CCN(c2ccc(F)cc2)CC1)c1cccnc1` (stereo not shown) (as salt: hydrobromid) [LK-9144, 2-(4-(4-Fluorophenyl)piperazine-1-yl)-1-(pyridine-3-yl)ethanol trihydrobromide] displayed a melting point of 198 to 201 °C.
`OC(CN1CCN(Cc2ccc(F)cc2)CC1)c1cccnc1` (stereo not shown) (as salt: hydrobromid) [LK-9148, 2-(4-(4-Fluorobenzyl)piperazine-1-yl)-1-(pyridine-3-yl)ethanol trihydrobromide] showed a melting point of 220 to 223 °C.
Turning to `OC(CN1CCN(CCc2ccccc2)CC1)c1ccc2ccccc2c1` (stereo not shown) [LK-9111B, 1-(Naphthalen-2-yl)-2-(4-phenethylpiperazin-1-yl)ethanol], the melting point is 126 to 129 °C. The “FF-MAS accumulation (in words)” value in data set [1] (10 μM, HepG2) was “notably accumulate FF-MAS”. The “lanosterol level (in words)” value in data set [1] (10 μM, HepG2, relative to normal medium) was “indicates lanosterol accumulation”. For the same molecule, the activity at 10 µM in data set [1] (HepG2, read-out: FF-MAS) worked out at 901%. Moreover, in data set [1] (HepG2, read-out: cholesterol), the activity at 10 µM came to 0%. In addition, the activity at 10 µM in data set [1] (HepG2, read-out: desmosterol) came out at 0%. In addition, the activity at 10 µM in data set [1] (HepG2, read-out: lanosterol) came out at 197%. In data set [1] (HepG2, read-out: lathosterol), the activity at 10 µM was 46%. In addition, the activity at 10 µM in data set [1] (setting [2]) was 171%. In data set [1] (HepG2), this molecule gave an FF-MAS of 9.01, a cholesterol of 0.00, a desmosterol of 0.00 and a lanosterol of 1.97. In data set [1] (HepG2), the lathosterol is recorded as 0.46 and the “zymosterol+7-dehydrocholesterol” value turned out to be 1.71.
Turning to `CC(C)c1c(C(=O)Nc2ccccc2)c(-c2ccccc2)c(-c2ccc(F)cc2)n1CC[C@@H](O)C[C@@H](O)CC(=O)O` [atorvastatin, reference compound], the “de novo cholesterol biosynthesis (in words)” value in data set [1] (10 μM, HepG2, radio-HPLC chromatograms) was “complete suppression of cholesterol biosynthesis as well as cholesterol precursors”. In addition, the activity at 10 µM in data set [1] (HepG2, read-out: FF-MAS) was determined as 0%. Further, in data set [1] (HepG2, read-out: cholesterol), the activity at 10 µM was 0%. The activity at 10 µM in data set [1] (HepG2, read-out: desmosterol) is 0%. Also, the activity at 10 µM in data set [1] (HepG2, read-out: lanosterol) amounted to 0%. Besides, the activity at 10 µM in data set [1] (HepG2, read-out: lathosterol) turned out to be 0%. In addition, the activity at 10 µM in data set [1] (setting [2]) amounted to 0%. In data set [1] (HepG2), this molecule registered an FF-MAS of 0.00, a cholesterol of 0.00, a desmosterol of 0.00 and a lanosterol of 0.00. Moreover, in data set [1] (HepG2), the lathosterol turned out to be 0.00 and the “zymosterol+7-dehydrocholesterol” value turned out to be 0.00.
